Results: patent US9604996B2 (Bayer Pharma Aktiengesellschaft, priority 2013, dated 2017)

Biological target: T1, human adenosine A2b receptor (Homo sapiens, UniProt P29275)
T1 construct: expressed in transfected cells; host or cells: CHO-K1 (Chinese Hamster Ovary) with CRE-luciferase reporter
T1 sequence (P29275 1-332): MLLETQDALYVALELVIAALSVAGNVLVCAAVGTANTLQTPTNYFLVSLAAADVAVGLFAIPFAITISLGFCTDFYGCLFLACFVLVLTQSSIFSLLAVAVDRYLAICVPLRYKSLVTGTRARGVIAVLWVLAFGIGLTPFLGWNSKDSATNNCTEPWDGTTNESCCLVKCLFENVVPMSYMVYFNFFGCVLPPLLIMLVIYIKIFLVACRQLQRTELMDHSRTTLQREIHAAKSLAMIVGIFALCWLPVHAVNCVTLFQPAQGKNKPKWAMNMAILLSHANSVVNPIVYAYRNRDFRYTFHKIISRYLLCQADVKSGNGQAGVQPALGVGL
Test: Cellular reporter gene (CRE-luciferase) A2b receptor antagonist assay in recombinant CHO-K1 cells stimulated with NECA
Assay type: cell-based
Settings: recombinant CHO-K1 cell line, co-incubation with EC50 concentration of NECA, 3 hours, in some cases means, rounded to two significant digits
Procedure: B-1. Cellular In Vitro Tests for Determining A2b Receptor Activity and Adenosine Receptor Selectivity
The identification of selective antagonists of the human adenosine A2b receptor and the quantification of the efficacy and selectivity of the compounds according to the invention was carried out with the aid of recombinant cell lines for the human adenosine receptors A1, A2a, A2b and A3. These cell lines were originally derived from an ovarepithelial cell of the hamster (Chinese Hamster Ovary, CHO-K1, American Type Culture Collection, Manassas, Va. 20108, USA). In addition to the respective recombinantly expressed adenosine receptor for testing the efficacy at the A1, A2a and A2b receptors, the cell lines contain a reporter gene construct where expression of the firefly (Photinus pyralis) luciferase is under the control of a promoter which can be activated via intracellular signal cascades by stimulation of the receptors with the (not subtype-selective) adenosine receptor agonist NECA (5′-N-ethylcarboxamidoadenosine) [S. J. Hill, J. G. Baker, S. Rhees, Curr. Opin. Pharmacol. 1, 526-532 (2001)].
In the case of the A2a and A2b cell lines, this is a minimal promoter having a plurality of cAMP-responsive elements (CRE). Stimulation of the Gs coupled A2b or A2a receptors by NECA ultimately leads, via formation of cAMP, to CRE-dependent induction of luciferase expression, which is detected 3 hours after the start of the incubation with NECA using a detection solution in a suitable luminometer. For testing the antagonists, initially, in a pre-experiment, the concentration of NECA which, at the test day in question, results in half-maximum stimulation of luciferase expression (EC50 concentration) is determined By joint incubation of this EC50 concentration of NECA with the substances to be tested, it is possible to determine their antagonistic activity.

Row | SMILES | IC50
1 | Cc1cccc(CCn2c(=O)c3c(C)c(C(=O)N4CCC(O)CC4)sc3n(CCC(F)(F)F)c2=O)c1 [Example 11, 6-[(4-Hydroxypiperidin-1-yl)carbonyl]-5-methyl-3-[2-(3-methylphenyl)ethyl]-1-(3,3,3-trifluoropropyl)thieno[2,3-d]pyrimidine-2,4(1H,3H)-dione] | 510 nM
2 | Cc1c(C(=O)N2CCC(O)CC2)sc2c1c(=O)n(CCc1ccc(F)cc1)c(=O)n2CCC(F)(F)F [Example 12, 3-[2-(4-Fluorophenyl)ethyl]-6-[(4-hydroxypiperidin-1-yl)carbonyl]-5-methyl-1-(3,3,3-trifluoropropyl)thieno[2,3-d]pyrimidine-2,4(1H,3H)-dione] | 65 nM
3 | Cc1c(C(=O)N2CCC(O)CC2)sc2c1c(=O)n(CCc1ccc(Cl)cc1)c(=O)n2CCC(F)(F)F [Example 13, 3-[2-(4-Chlorophenyl)ethyl]-6-[(4-hydroxypiperidin-1-yl)carbonyl]-5-methyl-1-(3,3,3-trifluoropropyl)thieno [2,3-d]pyrimidine-2,4(1H,3H)-dione] | 100 nM
4 | COc1ccc(CCn2c(=O)c3c(C)c(C(=O)N4CCC(O)CC4)sc3n(CCC(F)(F)F)c2=O)cc1 [Example 14, 6-[(4-Hydroxypiperidin-1-yl)carbonyl]-3-[2-(4-methoxyphenyl)ethyl]-5-methyl-1-(3,3,3-trifluoropropyl)thieno [2,3-d]pyrimidine-2,4(1H,3H)-dione] | 190 nM
5 | Cc1c(C(=O)N2CCC(O)CC2)sc2c1c(=O)n(CCc1cccnc1)c(=O)n2CCC(F)(F)F [Example 15] | 32 nM
6 | CCn1c(=O)c2c(C)c(C(=O)N3[C@@H]4CC[C@H]3CC(O)C4)sc2n(CCC(F)(F)F)c1=O (stereo partly drawn) [Example 23, 3-Ethyl-6-[(3-hydroxy-8-azabicyclo[3.2.1]oct-8-yl)carbonyl]-5-methyl-1-(3,3,3-trifluoropropyl)thieno[2,3-d]pyrimidine-2,4(1H,3H)-dione] | 43 nM

More lines, now with the values ahead:

Row | IC50 | SMILES
7 | 350 nM | Cc1c(C(=O)N2CCC(O)CC2)sc2c1c(=O)n(CCc1cnccn1)c(=O)n2CCC(F)(F)F [Example 17, 6-[(4-Hydroxypiperidin-1-yl)carbonyl]-5-methyl-3-[2-(pyrazin-2-yl)ethyl]-1-(3,3,3-trifluoropropyl)thieno[2,3-d]pyrimidine-2,4(1H,3H)-dione]
8 | 92 nM | CCn1c(=O)c2c(C)c(C(=O)N3CCC(O)CC3)sc2n(CCC=C(F)F)c1=O [Example 19, 1-(4,4-Difluorobut-3-en-1-yl)-3-ethyl-6-[(4-hydroxypiperidin-1-yl)carbonyl]-5-methylthieno[2,3-d]pyrimidine-2,4(1H,3H)-dione]
9 | 340 nM | CCn1c(=O)c2c(C)c(C(=O)N3CCC(O)CC3)sc2n(CCOC)c1=O [Example 20, 3-Ethyl-6-[(4-hydroxypiperidin-1-yl)carbonyl]-1-(2-methoxyethyl)-5-methylthieno[2,3-d]pyrimidine-2,4(1H,3H)-dione]
10 | 67 nM | CCn1c(=O)c2c(C)c(C(=O)N3CCC(O)(C(F)(F)F)CC3)sc2n(CCC(F)(F)F)c1=O [Example 22, 3-Ethyl-6-{[4-hydroxy-4-(trifluoromethyl)piperidin-1-yl]carbonyl}-5-methyl-1-(3,3,3-trifluoropropyl)thieno[2,3-d]pyrimidine-2,4(1H,3H)-dione]
11 | 49 nM | CCn1c(=O)c2c(C(F)(F)F)c(C(=O)N3CCC(O)CC3)sc2n(CCC(F)(F)F)c1=O [Example 25, 3-Ethyl-6-[(4-hydroxypiperidin-1-yl)carbonyl]-5-(trifluoromethyl)-1-(3,3,3-trifluoropropyl)thieno[2,3-d]pyrimidine-2,4(1H,3H)-dione]
12 | 41 nM | Cc1c(C(=O)N2CCNC(=O)C2)sc2c1c(=O)n(CCc1ccccc1)c(=O)n2CCC=C(F)F [Example 27, 1-(4,4-Difluorobut-3-en-1-yl)-5-methyl-6-[(3-oxopiperazin-1-yl)carbonyl]-3-(2-phenylethyl)thieno[2,3-d]pyrimidine-2,4(1H,3H)-dione]
